# Experiments:
# [1] = tested on: Seratia marcescens (S. marcescens); test: Growth test of S. marcescens after exposure to sanitizer, dilution plating (Example 1); format: cell-based
# Protocol: A 50 mL culture of the bacterium […] marcescens (S. marcescens) was grown, and four compounds were tested: an ethanol-based hand sanitizer currently on the market with 63% ethyl alcohol as the active ingredient, 60% isopropyl alcohol, and water as a control. 0.05 mL of the culture was exposed to one of the compounds for 15 and 60 seconds (except for the water, which was exposed for 30 seconds), and diluted by factors of powers of ten from a 10^-1 dilution to a 10^-10 dilution. 1 mL of each dilution was plated onto a CASO (a type of media) plate, and was incubated at 25 degrees Celsius (77 degrees Fahrenheit) for 48 hours. The colonies on the plates were then counted. The following is a table of the number of colonies on each plate (note-“Lawn” means that there were too many colonies to count individually).
# E. coli bacteria [2] = test: Growth test of E. coli after exposure to sanitizer, dilution plating (Example 2); format: cell-based
# Protocol: A 50 mL culture of the bacterium […] marcescens (S. marcescens) was grown, and four compounds were tested: an ethanol-based hand sanitizer currently on the market with 63% ethyl alcohol as the active ingredient, 60% isopropyl alcohol, and water as a control. 0.05 mL of the culture was exposed to one of the compounds for 15 and 60 seconds (except for the water, which was exposed for 30 seconds), and diluted by factors of powers of ten from a 10^-1 dilution to a 10^-10 dilution. 1 mL of each dilution was plated onto a CASO (a type of media) plate, and was incubated at 25 degrees Celsius (77 degrees Fahrenheit) for 48 hours. The colonies on the plates were then counted. The following is a table of the number of colonies on each plate (note-“Lawn” means that there were too many colonies to count individually). Example 2 followed the same protocol as Example 1, except E. coli bacteria were used instead of S. marcescens.
# E. coli bacteria [3] = test: Growth test of E. coli, different growth medium, 0.5 mL plated (Example 3); format: cell-based; conditions: exposed 10 s
# Protocol: A 50 mL culture of the bacterium […] marcescens (S. marcescens) was grown, and four compounds were tested: an ethanol-based hand sanitizer currently on the market with 63% ethyl alcohol as the active ingredient, 60% isopropyl alcohol, and water as a control. 0.05 mL of the culture was exposed to one of the compounds for 15 and 60 seconds (except for the water, which was exposed for 30 seconds), and diluted by factors of powers of ten from a 10^-1 dilution to a 10^-10 dilution. 1 mL of each dilution was plated onto a CASO (a type of media) plate, and was incubated at 25 degrees Celsius (77 degrees Fahrenheit) for 48 hours. The colonies on the plates were then counted. The following is a table of the number of colonies on each plate (note-“Lawn” means that there were too many colonies to count individually). Example 2 followed the same protocol as Example 1, except E. coli bacteria were used instead of S. marcescens. Example 3 followed the same protocol as Example 2, except for the following: A different type of growth medium was used on the plates, and 0.5 mL of culture was plated onto each plate instead of 1 mL in order to prevent flooding the plate. In this Example, 60% isopropanol, an ethanol-based hand sanitizer on the market and the hand sanitizer proposed in the patent were all exposed to bacteria for 10 seconds, than plated.
# S. marcescens bacteria [4] = test: Growth test of S. marcescens, 15 s exposure, CASO plate (Example 4); format: cell-based; conditions: exposed 15 seconds, 0.1 mL plated
# Protocol: (§1) Both S. marcescens and E. coil were cultured in CASO broth overnight. The cells were exposed to one of four compounds for 15 seconds: DE broth, 60% Isopropyl Alcohol (IPA), A hand sanitizer on the market with 62% ethanol as an active ingredient (HSM), and the hand sanitizer specified in the patent (WB). The samples were then diluted by factors of powers of ten from a 10^−1 dilution to a 10^−10 dilution. 0.1 mL of each dilution was then plated onto a CASO plate, and then incubated for 24 hours. Note—the abbreviation “TNTC” stands for “too numerous to count”. “Lawn” represents a sample that was filled with bacteria.
# E. coli bacteria [5] = test: Growth test of E. coli, 15 s exposure, CASO plate (Example 4); format: cell-based; conditions: exposed 15 seconds, 0.1 mL plated
# Protocol: as §1
# S. marcescens bacteria [6] = test: Growth test of S. marcescens, 15 s exposure (Example 5); format: cell-based; conditions: exposed 15 seconds
# Protocol: (§2) Both S. marcescens and E. coil were cultured in CASO broth overnight. The cells were exposed to one of four compounds for 15 seconds: DE broth, 60% Isopropyl Alcohol (IPA), A hand sanitizer on the market with 62% ethanol as an active ingredient (HSM), and the hand sanitizer specified in the patent (WB). The samples were then diluted by factors of powers of ten from a 10^−1 dilution to a 10^−10 dilution. 0.1 mL of each dilution was then plated onto a CASO plate, and then incubated for 24 hours. For Example 5, there was no ethanol present in the hand sanitizer formulation. The formulation consisted of 45% by volume of n-butanol, 10% of the humectant, and the remainder being water. The protocol followed for Example 5 was the same as the protocol for Example 4.
# E. coli bacteria [7] = test: Growth test of E. coli, 15 s exposure (Example 5); format: cell-based; conditions: exposed 15 seconds
# Protocol: as §2
# microorganisms = conditions: 1996 paper, Fundamental and Applied Toxicology; cited from earlier work
smiles,measurement,setting,value
"CC(C)O [IPA, isopropyl alcohol]",number of colonies on plate,"[1]; exposed 15 s, 10^−1 dilution",0 colonies
same,number of colonies on plate,"[1]; exposed 15 s, 10^−2 dilution",0 colonies
same,number of colonies on plate,"[1]; exposed 15 s, 10^−3 dilution",0 colonies
same,number of colonies on plate,"[1]; exposed 15 s, 10^−4 dilution",0 colonies
same,number of colonies on plate,"[1]; exposed 15 s, 10^−5 dilution",0 colonies
same,number of colonies on plate,"[1]; exposed 15 s, 10^−6 dilution",0 colonies
same,number of colonies on plate,"[1]; exposed 15 s, 10^−7 dilution",0 colonies
same,number of colonies on plate,"[1]; exposed 15 s, 10^−8 dilution",0 colonies
same,number of colonies on plate,"[1]; exposed 15 s, 10^−9 dilution",0 colonies
same,number of colonies on plate,"[1]; exposed 15 s, 10^−10 dilution",0 colonies
same,number of colonies on plate,"[1]; exposed 60 s, 10^−1 dilution",0 colonies
same,number of colonies on plate,"[1]; exposed 60 s, 10^−2 dilution",0 colonies
same,number of colonies on plate,"[1]; exposed 60 s, 10^−3 dilution",0 colonies
same,number of colonies on plate,"[1]; exposed 60 s, 10^−4 dilution",0 colonies
same,number of colonies on plate,"[1]; exposed 60 s, 10^−5 dilution",0 colonies
same,number of colonies on plate,"[1]; exposed 60 s, 10^−6 dilution",0 colonies
same,number of colonies on plate,"[1]; exposed 60 s, 10^−7 dilution",0 colonies
same,number of colonies on plate,"[1]; exposed 60 s, 10^−8 dilution",0 colonies
same,number of colonies on plate,"[1]; exposed 60 s, 10^−9 dilution",0 colonies
same,number of colonies on plate,"[1]; exposed 60 s, 10^−10 dilution",0 colonies
same,number of colonies on plate,"E. coli bacteria [2]; exposed 15 s, 10^−1 dilution",0 colonies
same,number of colonies on plate,"E. coli bacteria [2]; exposed 15 s, 10^−2 dilution",0 colonies
same,number of colonies on plate,"E. coli bacteria [2]; exposed 15 s, 10^−3 dilution",0 colonies
same,number of colonies on plate,"E. coli bacteria [2]; exposed 15 s, 10^−4 dilution",0 colonies
same,number of colonies on plate,"E. coli bacteria [2]; exposed 15 s, 10^−5 dilution",0 colonies
same,number of colonies on plate,"E. coli bacteria [2]; exposed 15 s, 10^−6 dilution",0 colonies
same,number of colonies on plate,"E. coli bacteria [2]; exposed 15 s, 10^−7 dilution",0 colonies
same,number of colonies on plate,"E. coli bacteria [2]; exposed 15 s, 10^−8 dilution",0 colonies
same,number of colonies on plate,"E. coli bacteria [2]; exposed 15 s, 10^−9 dilution",0 colonies
same,number of colonies on plate,"E. coli bacteria [2]; exposed 15 s, 10^−10 dilution",0 colonies
same,number of colonies on plate,"E. coli bacteria [2]; exposed 60 s, 10^−1 dilution",0 colonies
same,number of colonies on plate,"E. coli bacteria [2]; exposed 60 s, 10^−2 dilution",0 colonies
same,number of colonies on plate,"E. coli bacteria [2]; exposed 60 s, 10^−3 dilution",0 colonies
same,number of colonies on plate,"E. coli bacteria [2]; exposed 60 s, 10^−4 dilution",0 colonies
same,number of colonies on plate,"E. coli bacteria [2]; exposed 60 s, 10^−5 dilution",0 colonies
same,number of colonies on plate,"E. coli bacteria [2]; exposed 60 s, 10^−6 dilution",0 colonies
same,number of colonies on plate,"E. coli bacteria [2]; exposed 60 s, 10^−7 dilution",0 colonies
same,number of colonies on plate,"E. coli bacteria [2]; exposed 60 s, 10^−8 dilution",0 colonies
same,number of colonies on plate,"E. coli bacteria [2]; exposed 60 s, 10^−9 dilution",0 colonies
same,number of colonies on plate,"E. coli bacteria [2]; exposed 60 s, 10^−10 dilution",0 colonies
same,number of colonies on plate,E. coli bacteria [3]; 10^−1 dilution,0 colonies
same,number of colonies on plate,E. coli bacteria [3]; 10^−2 dilution,0 colonies
same,number of colonies on plate,E. coli bacteria [3]; 10^−3 dilution,0 colonies
same,number of colonies on plate,E. coli bacteria [3]; 10^−4 dilution,0 colonies
same,number of colonies on plate,E. coli bacteria [3]; 10^−5 dilution,0 colonies
same,number of colonies on plate,E. coli bacteria [3]; 10^−6 dilution,0 colonies
same,number of colonies on plate,E. coli bacteria [3]; 10^−7 dilution,0 colonies
same,number of colonies on plate,E. coli bacteria [3]; 10^−8 dilution,0 colonies
same,number of colonies on plate,E. coli bacteria [3]; 10^−9 dilution,0 colonies
same,number of colonies on plate,E. coli bacteria [3]; 10^−10 dilution,0 colonies
same,growth test plate count,S. marcescens bacteria [4]; 10^−1 dilution,1
same,growth test plate count,S. marcescens bacteria [4]; 10^−2 dilution,3
same,growth test plate count,S. marcescens bacteria [4]; 10^−3 dilution,10
same,growth test plate count,S. marcescens bacteria [4]; 10^−4 dilution,6
same,growth test plate count,S. marcescens bacteria [4]; 10^−5 dilution,2
same,growth test plate count,E. coli bacteria [5]; 10^−1 dilution,0
same,growth test plate count,E. coli bacteria [5]; 10^−2 dilution,0
same,growth test plate count,E. coli bacteria [5]; 10^−3 dilution,0
same,growth test plate count,E. coli bacteria [5]; 10^−4 dilution,0
same,growth test plate count,E. coli bacteria [5]; 10^−5 dilution,0
same,growth test plate count,S. marcescens bacteria [6]; 10^−1 dilution,0
same,growth test plate count,S. marcescens bacteria [6]; 10^−2 dilution,0
same,growth test plate count,S. marcescens bacteria [6]; 10^−3 dilution,0
same,growth test plate count,S. marcescens bacteria [6]; 10^−4 dilution,0
same,growth test plate count,S. marcescens bacteria [6]; 10^−5 dilution,0
same,growth test plate count,E. coli bacteria [7]; 10^−1 dilution,0
same,growth test plate count,E. coli bacteria [7]; 10^−2 dilution,0
same,growth test plate count,E. coli bacteria [7]; 10^−3 dilution,0
same,growth test plate count,E. coli bacteria [7]; 10^−4 dilution,0
same,growth test plate count,E. coli bacteria [7]; 10^−5 dilution,0
CCCO [1-propanol],effectiveness in killing microorganisms compared with ethanol,microorganisms,more effective
CCCCCO [1-pentanol],effectiveness in killing microorganisms compared with ethanol,microorganisms,more effective
CCCCO [1-butanol],effectiveness in killing microorganisms compared with ethanol,microorganisms,more effective

# Reference: patent publication US9456602B2, “Method for the formulation of hand sanitizer” (Working Bugs, LLC, priority 2011, dated 2016)
